In ChEMBL document CHEMBL3885861, “Open TG-GATES”:

Organism: Rattus norvegicus
Assay: Open TG-GATES - Regimen: Daily Repeat
Assay type: toxicity, organism-based, Sprague-Dawley
Parameters: regimen Daily Repeat, gender Male, age 6 weeks
Details: in vivo, iv, 0 mg/kg, route intravenous injection, dose level Control; for APTT / Bas / Eos / Fbg / Hb / Ht / Lym / MCH / MCHC / MCV / Mono / Neu / PT / Plat / RBC / Ret / WBC: tissue Blood; for KIDNEY_L / KIDNEY_R / KIDNEY_TOTAL: tissue Kidney; for LIVER: tissue Liver; for A/G / ALP / ALT / AST / BUN / CRE / Ca / Cl / DBIL / GLC / IP / K / LDH / Na / PL / RALB / TBIL / TC / TG / TP / gamma-GTP: tissue Plasma

With `NCCBr` [BROMOETHANAMINE] the TERMINAL_BW (72 h, time 3 day) was 229.6 g, the APTT (72 h, time 3 day) was 23.7 s and the Bas (72 h, time 3 day) was 0%. The Eos (72 h, time 3 day) was 1%, the Fbg (72 h, time 3 day) was 290.6 mg/dL and the Hb (72 h, time 3 day) was 13.5 g/dL. The Ht (72 h, time 3 day) was 39.3%, the Lym (72 h, time 3 day) was 82.2% and the MCH (72 h, time 3 day) was 21 pg. It also gave an MCHC (72 h, time 3 day) of 34.4%, an MCV (72 h, time 3 day) of 61.2 fL and a Mono (72 h, time 3 day) of 2%. For the same compound, the Neu (72 h, time 3 day) was 13.6%, the PT (72 h, time 3 day) was 16.3 s and the Plat (72 h, time 3 day) was 122.8 x10_4/uL. For the same compound, the RBC (72 h, time 3 day) was 641.2 x10_4/ul, the Ret (72 h, time 3 day) was 4.8% and the WBC (72 h, time 3 day) was 116.1 x10_2/uL. The KIDNEY_L (72 h, time 3 day) was 1 g, the KIDNEY_R (72 h, time 3 day) was 1 g and the KIDNEY_TOTAL (72 h, time 3 day) was 2 g. The LIVER (72 h, time 3 day) was 10.3 g, the A/G (72 h, time 3 day) was 1.2 and the ALP (72 h, time 3 day) was 1818.6 IU/L. For the same compound, the ALT (72 h, time 3 day) was 45.2 IU/L, the AST (72 h, time 3 day) was 72.2 IU/L and the BUN (72 h, time 3 day) was 16 mg/dL. For the same compound, the CRE (72 h, time 3 day) was 0.2 mg/dL, the Ca (72 h, time 3 day) was 10.7 mg/dL and the Cl (72 h, time 3 day) was 106 meq/L. The DBIL (72 h, time 3 day) was 0 mg/dL, the GLC (72 h, time 3 day) was 181 mg/dL and the IP (72 h, time 3 day) was 7.7 mg/dL. It also gave a K (72 h, time 3 day) of 4.7 meq/L, an LDH (72 h, time 3 day) of 170 IU/L and a Na (72 h, time 3 day) of 141.4 meq/L. It also gave a PL (72 h, time 3 day) of 132 mg/dL, an RALB (72 h, time 3 day) of 3 g/dL and a TBIL (72 h, time 3 day) of 0.006 mg/dL. It also gave a TC (72 h, time 3 day) of 68.4 mg/dL, a TG (72 h, time 3 day) of 76 mg/dL and a TP (72 h, time 3 day) of 5.5 g/dL. The gamma-GTP (72 h, time 3 day) was 1.4 IU/L, the TERMINAL_BW ([…], time 7 day) was 257 g and the TERMINAL_BW ([…], time 14 day) was 314.6 g. For the same compound, the TERMINAL_BW ([…], time 28 day) was 359.9 g, the APTT ([…], time 7 day) was 23.2 s and the Bas ([…], time 7 day) was 0%. The Eos ([…], time 7 day) was 1%, the Fbg ([…], time 7 day) was 288.8 mg/dL and the Hb ([…], time 7 day) was 13.7 g/dL. For the same compound, the Ht ([…], time 7 day) was 39.5%, the Lym ([…], time 7 day) was 82.8% and the MCH ([…], time 7 day) was 21 pg. It also gave an MCHC ([…], time 7 day) of 34.6%, an MCV ([…], time 7 day) of 60.9 fL and a Mono ([…], time 7 day) of 2.4%. It also gave a Neu ([…], time 7 day) of 13.2%, a PT ([…], time 7 day) of 15.9 s and a Plat ([…], time 7 day) of 132.6 x10_4/uL. It also gave an RBC ([…], time 7 day) of 649.4 x10_4/ul, a Ret ([…], time 7 day) of 4.4% and a WBC ([…], time 7 day) of 113.7 x10_2/uL. It also gave an APTT ([…], time 14 day) of 23.9 s, a Bas ([…], time 14 day) of 0% and an Eos ([…], time 14 day) of 1.2%. The Fbg ([…], time 14 day) was 301 mg/dL, the Hb ([…], time 14 day) was 14 g/dL and the Ht ([…], time 14 day) was 40.1%. For the same compound, the Lym ([…], time 14 day) was 85%, the MCH ([…], time 14 day) was 20.6 pg and the MCHC ([…], time 14 day) was 34.9%. The MCV ([…], time 14 day) was 59 fL, the Mono ([…], time 14 day) was 2.2% and the Neu ([…], time 14 day) was 10.6%. For the same compound, the PT ([…], time 14 day) was 15.9 s, the Plat ([…], time 14 day) was 117.9 x10_4/uL and the RBC ([…], time 14 day) was 680.2 x10_4/ul. The Ret ([…], time 14 day) was 3.6%, the WBC ([…], time 14 day) was 89.2 x10_2/uL and the APTT ([…], time 28 day) was 25.5 s. It also gave a Bas ([…], time 28 day) of 0%, an Eos ([…], time 28 day) of 1.8% and a Fbg ([…], time 28 day) of 297 mg/dL. For the same compound, the Hb ([…], time 28 day) was 15.7 g/dL, the Ht ([…], time 28 day) was 42.5% and the Lym ([…], time 28 day) was 84.8%. The MCH ([…], time 28 day) was 20.6 pg, the MCHC ([…], time 28 day) was 36.9% and the MCV ([…], time 28 day) was 55.8 fL. The Mono ([…], time 28 day) was 2%, the Neu ([…], time 28 day) was 10.8% and the PT ([…], time 28 day) was 16.7 s. The Plat ([…], time 28 day) was 100.6 x10_4/uL, the RBC ([…], time 28 day) was 762.2 x10_4/ul and the Ret ([…], time 28 day) was 2.3%. It also gave a WBC ([…], time 28 day) of 126.1 x10_2/uL, a KIDNEY_L ([…], time 7 day) of 1.1 g and a KIDNEY_R ([…], time 7 day) of 1.1 g. The KIDNEY_TOTAL ([…], time 7 day) was 2.2 g, the KIDNEY_L ([…], time 14 day) was 1.3 g and the KIDNEY_R ([…], time 14 day) was 1.3 g. For the same compound, the KIDNEY_TOTAL ([…], time 14 day) was 2.6 g, the KIDNEY_L ([…], time 28 day) was 1.3 g and the KIDNEY_R ([…], time 28 day) was 1.4 g. The KIDNEY_TOTAL ([…], time 28 day) was 2.7 g, the LIVER ([…], time 7 day) was 11.9 g and the LIVER ([…], time 14 day) was 13.5 g. For the same compound, the LIVER ([…], time 28 day) was 13.9 g, the A/G ([…], time 7 day) was 1.1 and the ALP ([…], time 7 day) was 1565.4 IU/L. For the same compound, the ALT ([…], time 7 day) was 39 IU/L, the AST ([…], time 7 day) was 68.2 IU/L and the BUN ([…], time 7 day) was 17.6 mg/dL. It also gave a CRE ([…], time 7 day) of 0.2 mg/dL, a Ca ([…], time 7 day) of 10.7 mg/dL and a Cl ([…], time 7 day) of 104.6 meq/L. It also gave a DBIL ([…], time 7 day) of 0 mg/dL, a GLC ([…], time 7 day) of 188.2 mg/dL and an IP ([…], time 7 day) of 6.9 mg/dL. The K ([…], time 7 day) was 4.7 meq/L, the LDH ([…], time 7 day) was 190.6 IU/L and the Na ([…], time 7 day) was 139.8 meq/L. It also gave a PL ([…], time 7 day) of 138.6 mg/dL, an RALB ([…], time 7 day) of 2.9 g/dL and a TBIL ([…], time 7 day) of 0.008 mg/dL. For the same compound, the TC ([…], time 7 day) was 71.2 mg/dL, the TG ([…], time 7 day) was 94.8 mg/dL and the TP ([…], time 7 day) was 5.5 g/dL. The gamma-GTP ([…], time 7 day) was 2.4 IU/L, the A/G ([…], time 14 day) was 1.1 and the ALP ([…], time 14 day) was 1268.2 IU/L. The ALT ([…], time 14 day) was 42 IU/L, the AST ([…], time 14 day) was 72.8 IU/L and the BUN ([…], time 14 day) was 18.4 mg/dL. It also gave a CRE ([…], time 14 day) of 0.2 mg/dL, a Ca ([…], time 14 day) of 10.9 mg/dL and a Cl ([…], time 14 day) of 106 meq/L. For the same compound, the DBIL ([…], time 14 day) was 0 mg/dL, the GLC ([…], time 14 day) was 183.8 mg/dL and the IP ([…], time 14 day) was 7.4 mg/dL. The K ([…], time 14 day) was 4.5 meq/L, the LDH ([…], time 14 day) was 176 IU/L and the Na ([…], time 14 day) was 143.8 meq/L. The PL ([…], time 14 day) was 139.2 mg/dL, the RALB ([…], time 14 day) was 3.1 g/dL and the TBIL ([…], time 14 day) was 0.004 mg/dL. The TC ([…], time 14 day) was 71.6 mg/dL, the TG ([…], time 14 day) was 97.8 mg/dL and the TP ([…], time 14 day) was 5.8 g/dL. It also gave a gamma-GTP ([…], time 14 day) of 2.4 IU/L, an A/G ([…], time 28 day) of 1.1 and an ALP ([…], time 28 day) of 1244.2 IU/L. For the same compound, the ALT ([…], time 28 day) was 39.2 IU/L, the AST ([…], time 28 day) was 67.8 IU/L and the BUN ([…], time 28 day) was 19.6 mg/dL. For the same compound, the CRE ([…], time 28 day) was 0.2 mg/dL, the Ca ([…], time 28 day) was 10.4 mg/dL and the Cl ([…], time 28 day) was 104.4 meq/L. It also gave a DBIL ([…], time 28 day) of 0 mg/dL, a GLC ([…], time 28 day) of 203.4 mg/dL and an IP ([…], time 28 day) of 6.4 mg/dL. It also gave a K ([…], time 28 day) of 4.2 meq/L, an LDH ([…], time 28 day) of 147 IU/L and a Na ([…], time 28 day) of 144.2 meq/L. It also gave a PL ([…], time 28 day) of 137 mg/dL, an RALB ([…], time 28 day) of 3.1 g/dL and a TBIL ([…], time 28 day) of 0.01 mg/dL. It also gave a TC ([…], time 28 day) of 66 mg/dL, a TG ([…], time 28 day) of 124.4 mg/dL and a TP ([…], time 28 day) of 6 g/dL. The gamma-GTP ([…], time 28 day) was 2.8 IU/L.
